According to paper PMC8426237, “A first-in-human phase I study of TAS0728, an oral covalent binding inhibitor of HER2, in patients with advanced solid tumors with HER2 or HER3 aberrations” (Investigational New Drugs, 2021):

Assay: Phase I safety assessment: adverse events (CTCAE v5.0) in patients
[1] = 50-mg dose level cohort, 2 of 3
[2] = Dose Level 1: 50 mg BID (N = 3)
[3] = Dose Level 2: 100 mg BID (N = 3)
[4] = Dose Level 3: 200 mg BID (N = 7)

Experimental: A DLT was defined as a study treatment-related adverse event (TRAE), according to the Common Terminology Criteria for Adverse Events (CTCAE, Version 5.0), with qualifying criteria for certain DLTs (e.g., Grade ≥ 3 diarrhea, was included as a DLT only if lasting >48 h and unresponsive to intensive antidiarrheal medication).
Patients were closely monitored for these potential toxicities during the current study. Safety assessments included recording of AEs and serious AEs (SAEs) from the time of signing the study informed consent form to 30 days after the last dose of study medication. Safety parameters including laboratory evaluations (hematology, coagulation, chemistry, and urinalysis), vital sign measurements and body weight, electrocardiogram (ECG) recordings, ECOG performance status, echocardiogram or multi-gated acquisition (MUGA), and physical examination were assessed at screening, during the study and at 30 days following the last dose. The use of concomitant medications was permitted and details for such medications were recorded.

C=CC(=O)N1CCC[C@@H](n2nc(C(=O)Nc3ccc(CC(=O)N(C)C)c(C)c3C)c3c(N)ncnc32)C1 [TAS0728]
Patients with AEs (50 mg BID (N = 3)): 3 (100) n, (%)
Patients with AEs that had an outcome of death (50 mg BID (N = 3)): 0 n, (%)
Patients with AEs that led to study treatment discontinuation (50 mg BID (N = 3)): 0 n, (%)
Patients with Grade ≥ 3 AEs (50 mg BID (N = 3)): 2 (66.7) n, (%)
Patients with SAEs (50 mg BID (N = 3)): 1 (33.3) n, (%)
Patients with treatment-related AEs (50 mg BID (N = 3)): 3 (100) n, (%)
Patients with treatment-related and Grade ≥ 3 AEs (50 mg BID (N = 3)): 0 n, (%)
Patients with AEs (100 mg BID (N = 3)): 3 (100) n, (%)
Patients with AEs that had an outcome of death (100 mg BID (N = 3)): 0 n, (%)
Patients with AEs that led to study treatment discontinuation (100 mg BID (N = 3)): 1 (33.3) n, (%)
Patients with Grade ≥ 3 AEs (100 mg BID (N = 3)): 0 n, (%)
Patients with SAEs (100 mg BID (N = 3)): 0 n, (%)
Patients with treatment-related AEs (100 mg BID (N = 3)): 3 (100) n, (%)
Patients with treatment-related and Grade ≥ 3 AEs (100 mg BID (N = 3)): 0 n, (%)
Patients with AEs (150 mg BID (N = 6)): 6 (100) n, (%)
Patients with AEs that had an outcome of death (150 mg BID (N = 6)): 1 (16.7) n, (%)
Patients with AEs that led to study treatment discontinuation (150 mg BID (N = 6)): 1 (16.7) n, (%)
Patients with Grade ≥ 3 AEs (150 mg BID (N = 6)): 3 (50.0) n, (%)
Patients with SAEs (150 mg BID (N = 6)): 4 (66.7) n, (%)
Patients with treatment-related AEs (150 mg BID (N = 6)): 5 (83.3) n, (%)
Patients with treatment-related and Grade ≥ 3 AEs (150 mg BID (N = 6)): 2 (33.3) n, (%)
Patients with fatal cardiac arrest (Grade 5) (150 mg BID, after 1 cycle (21 days)): one
Patients with AEs (200 mg BID (N = 7)): 7 (100) n, (%)
Patients with AEs that had an outcome of death (200 mg BID (N = 7)): 0 n, (%)
Patients with AEs that led to study treatment discontinuation (200 mg BID (N = 7)): 1 (14.3) n, (%)
Patients with Grade ≥ 3 AEs (200 mg BID (N = 7)): 4 (57.1) n, (%)
Patients with SAEs (200 mg BID (N = 7)): 3 (42.9) n, (%)
Patients with treatment-related AEs (200 mg BID (N = 7)): 6 (85.7) n, (%)
Patients with treatment-related and Grade ≥ 3 AEs (200 mg BID (N = 7)): 4 (57.1) n, (%)
Patients who worsened to an ECOG status of 2 (1 in each of the 200-mg and 150-mg BID cohorts, ECOG 1 at baseline): 2
Treatment discontinuation due to AEs (1 patient of 19): 5.3%
Treatment discontinuation due to fatal cardiac arrest (1 patient of 19): 5.3%
Patients with diarrhea at a severity ≥Grade 3 (50-mg dose level cohort): 1
Patients with diarrhea [1]: 66.7%
Patients with hyperuricemia [1]: 66.7%
Patients with diarrhea (all Grade 1 or Grade 2) (100-mg dose level cohort, all 3): 100%
Patients with diarrhea at a severity ≥Grade 3 (200-mg dose): 3
Patients with asthenia (200-mg dose, 2/7): 28.6%
Patients with decreased appetite (200-mg dose, 2/7): 28.6%
Patients with dry skin (200-mg dose, 2/7): 28.6%
Patients with edema peripheral (200-mg dose, 2/7): 28.6%
Patients with hypokalemia (200-mg dose, 2/7): 28.6%
Patients with nausea (200-mg dose, 2/7): 28.6%
Patients with vomiting (200-mg dose, 2/7): 28.6%
Patients with cough (200-mg dose, 3/7): 42.9%
Patients with dermatitis acneiform (200-mg dose, 3/7): 42.9%
Patients with fatigue (200-mg dose, 3/7): 42.9%
Patients with pyrexia (200-mg dose, 3/7): 42.9%
Patients with anemia (200-mg dose, 5/7): 71.4%
Patients with diarrhea (200-mg dose, 6 of 7): 85.7%
Adverse events experienced in ≥10% patients, Grade 1 [2]: 3 (100) n (%)
Adverse events experienced in ≥10% patients, Grade 2 [2]: 1 (33.3) n (%)
Adverse events experienced in ≥10% patients, Grade 3 [2]: 2 (66.7) n (%)
Adverse events experienced in ≥10% patients, Grade 4 [2]: 1 (33.3) n (%)
Adverse events experienced in ≥10% patients, Grade 5 [2]: 0 n (%)
Adverse events experienced in ≥10% patients, Total [2]: 3 (100) n (%)
Adverse events experienced in ≥10% patients, ≥Grade 3 [2]: 2 (66.7) n (%)
Diarrhea, Grade 1 [2]: 2 (66.7) n (%)
Diarrhea, Grade 2 [2]: 1 (33.3) n (%)
Diarrhea, Grade 3 [2]: 1 (33.3) n (%)
Diarrhea, Grade 4 [2]: 0 n (%)
Diarrhea, Grade 5 [2]: 0 n (%)
Diarrhea, Total [2]: 2 (66.7) n (%)
Diarrhea, ≥Grade 3 [2]: 1 (33.3) n (%)
Hyperuricemia, Grade 1 [2]: 2 (66.7) n (%)
Hyperuricemia, Grade 2 [2]: 0 n (%)
Hyperuricemia, Grade 3 [2]: 0 n (%)
Hyperuricemia, Grade 4 [2]: 0 n (%)
Hyperuricemia, Grade 5 [2]: 0 n (%)
Hyperuricemia, Total [2]: 2 (66.7) n (%)
Hyperuricemia, ≥Grade 3 [2]: 0 n (%)
Adverse events experienced in ≥10% patients, Grade 1 [3]: 3 (100) n (%)
Adverse events experienced in ≥10% patients, Grade 2 [3]: 2 (66.7) n (%)
Adverse events experienced in ≥10% patients, Grade 3 [3]: 0 n (%)
Adverse events experienced in ≥10% patients, Grade 4 [3]: 0 n (%)
Adverse events experienced in ≥10% patients, Grade 5 [3]: 0 n (%)
Adverse events experienced in ≥10% patients, Total [3]: 3 (100) n (%)
Adverse events experienced in ≥10% patients, ≥Grade 3 [3]: 0 n (%)
Diarrhea, Grade 1 [3]: 3 (100) n (%)
Diarrhea, Grade 2 [3]: 1 (33.3) n (%)
Diarrhea, Grade 3 [3]: 0 n (%)
Diarrhea, Grade 4 [3]: 0 n (%)
Diarrhea, Grade 5 [3]: 0 n (%)
Diarrhea, Total [3]: 3 (100) n (%)
Diarrhea, ≥Grade 3 [3]: 0 n (%)
Adverse events experienced in ≥10% patients, Grade 1 [4]: 6 (85.7) n (%)
Adverse events experienced in ≥10% patients, Grade 2 [4]: 7 (100) n (%)
Adverse events experienced in ≥10% patients, Grade 3 [4]: 4 (57.1) n (%)
Adverse events experienced in ≥10% patients, Grade 4 [4]: 0 n (%)
Adverse events experienced in ≥10% patients, Grade 5 [4]: 0 n (%)
Adverse events experienced in ≥10% patients, Total [4]: 7 (100) n (%)
Adverse events experienced in ≥10% patients, ≥Grade 3 [4]: 4 (57.1) n (%)
Anemia, Grade 1 [4]: 2 (28.6) n (%)
Anemia, Grade 2 [4]: 3 (42.9) n (%)
Anemia, Grade 3 [4]: 1 (14.3) n (%)
Anemia, Grade 4 [4]: 0 n (%)
Anemia, Grade 5 [4]: 0 n (%)
Anemia, Total [4]: 5 (71.4) n (%)
Anemia, ≥Grade 3 [4]: 1 (14.3) n (%)
Asthenia, Grade 1 [4]: 2 (28.6) n (%)
Asthenia, Grade 2 [4]: 1 (14.3) n (%)
Asthenia, Grade 3 [4]: 0 n (%)
Asthenia, Grade 4 [4]: 0 n (%)
Asthenia, Grade 5 [4]: 0 n (%)
Asthenia, Total [4]: 2 (28.6) n (%)
Asthenia, ≥Grade 3 [4]: 0 n (%)
Cough, Grade 1 [4]: 3 (42.9) n (%)
Cough, Grade 2 [4]: 0 n (%)
Cough, Grade 3 [4]: 0 n (%)
Cough, Grade 4 [4]: 0 n (%)
Cough, Grade 5 [4]: 0 n (%)
Cough, Total [4]: 3 (42.9) n (%)
Cough, ≥Grade 3 [4]: 0 n (%)
Decreased appetite, Grade 1 [4]: 1 (14.3) n (%)
Decreased appetite, Grade 2 [4]: 1 (14.3) n (%)
Decreased appetite, Grade 3 [4]: 0 n (%)
Decreased appetite, Grade 4 [4]: 0 n (%)
Decreased appetite, Grade 5 [4]: 0 n (%)
Decreased appetite, Total [4]: 2 (28.6) n (%)
Decreased appetite, ≥Grade 3 [4]: 0 n (%)
Dermatitis acneiform, Grade 1 [4]: 2 (28.6) n (%)
Dermatitis acneiform, Grade 2 [4]: 1 (14.3) n (%)
Dermatitis acneiform, Grade 3 [4]: 0 n (%)
Dermatitis acneiform, Grade 4 [4]: 0 n (%)
Dermatitis acneiform, Grade 5 [4]: 0 n (%)
Dermatitis acneiform, Total [4]: 3 (42.9) n (%)
